Results from US20160319367A1, “MEANS AND METHODS FOR TYPING A BREAST CANCER PATIENT AND ASSIGNING THERAPY BASED ON THE TYPING” (STICHTING HET NEDERLANDS KANKER INSTITUUT-ANTONI VAN …, priority 2013, published 2016).

Assays:
[1] = cited from earlier work
ERα = ERα ChIP-seq (ERα/chromatin interactions) in ZR-75-1 cells; assay type: cell-based, human; settings: control ZR-75-1 cells (pRS-GFP), hormone depleted 72 hours, ligand for 48 hours
Procedure: Chromatin Immunoprecipitations (ChIP) were performed as described before (Schmidt et al., 2009. Methods 48: 240-8). For each ChIP, 10 μg of antibody was used, and 100 μl of Protein A magnetic beads (Invitrogen). The antibody used was raised against ERα (SC-543; Santa Cruz).
ChIP DNA was amplified as described (Schmidt et al., 2009. Methods 48: 240-8). Sequences were generated by the Illumina Hiseq 2000 genome analyser (using 50 bp reads), and aligned to the Human Reference Genome (assembly hg19, February 2009). Enriched regions of the genome were identified by comparing the ChIP samples to mixed input using the MACS peak caller (Zhang et al., 2008. Genome Biol 9: R137) version 1.3.7.1.
ChIP-seq data snapshots were generated using the Integrative Genome Viewer IGV 2.1 (www.broadinstitute.org/igv/). Motif analyses were performed through the Cistrome (cistrome.org), applying the SeqPos motif tool (He et al., 2010. Nat Genet 42: 343-7). The genomic distributions of binding sites were analysed using the cis-regulatory element annotation system (CEAS) (Ji et al., 2006. Nucleic Acids Res 34: W551-4). The genes closest to the binding site on both strands were analysed. If the binding region is within a gene, CEAS software indicates whether it is in a 5′UTR, a 3′UTR, a coding exon, or an intron. Promoter is defined as 3 kb upstream from RefSeq 5′ start. […]

ZR-75-1 cells [2] = experiment: RNA-seq global gene expression analysis in ZR-75-1 cells; assay type: cell-based, human; settings: hormone depletion for 72 hours, treated for 48 hours, RNAseq, p<0.05
Procedure: Transcriptome sequencing analysis of the cell line ZR-75-1 with stable USP9X knockdown or a control vector were performed using RNA-Seq. The reads (14-30 million 50 bp single-end) were mapped to the human reference genome (hg19) using TopHat (Trapnell et al., 2009. Bioinformatics 25: 1105-1127), which allows to span exon-exon splice junctions. TopHat was supplied with a known set of gene models (Ensembl version 64). The open-source tool HTSeq-Count was used to obtain gene expressions. This tool generates a list of the total number of uniquely mapped sequencing reads for each gene that is present in the provided Gene Transfer Format (GTF) file. In order to identify differentially expressed genes, the random sampling model in the R package […] al., 2010. Bioinformatics 26: 136-8.28) was used. […] The input of this method is the absolute number of reads for a gene, which is the output of HTSeq-count. Genes with no expression across both samples in the comparison were discarded from the dataset. The expression levels of the remaining genes were added with 1 in order to avoid negative values after log 2 transformation during the normalization step within this method. […] We therefore asked whether USP9X knockdown in tamoxifen-treated cells would also give rise to a typical estradiol-responsive gene set. […]

ZR-75-1 cells [3] = experiment: Colony formation / proliferation assay in ZR-75-1 cells; assay type: cell-based, human; settings: 1 μM 4OH-tamoxifen or 10^-7 M fulvestrant
Procedure: The human breast cancer cell lines ZR-75-1 (ATCC CRL-1500), MDA-MB-231 (ATCC HTB-26) and T47D (ATCC HTB133) were cultured in DMEM supplemented with 10% FCS, 2 mM glutamine, 100 μg/ml penicillin, 100 μg/ml streptomycin, and 1 nM estradiol at 37° C. in 5% CO2. […] Phoenix cells (ATCC CRL-3214) were cultured at 37° C. in 5% CO2 in DMEM with 10% FCS, 2 mM glutamine, 100 μg/ml penicillin, and 100 μg/ml streptomycin.
Cells were infected with retroviral supernatant and selected with puromycin (2.0 μg/ml). […] When colonies appeared, cells were fixed in MeOH/HAc (3:1) and subsequently stained with 50% MeOH/10% HAc/0.1% Coomassie.

[4] = early breast cancer, 5 years of adjuvant treatment

For `CC/C(=C(\c1ccccc1)c1ccc(OCCN(C)C)cc1)c1ccccc1.O=C(O)CC(O)(CC(=O)O)C(=O)O` [tamoxifen, (Z)2-[4-(1,2-diphenyl-1-butenyl)phenoxy]-N, N-dimethylethanamine 2-hydroxy-1,2,3-propanetricarboxylate (1:1)], the “rate of disease recurrence” value [1, 4] is given as “almost halves”, the “reduction of annual breast cancer death rate” value [1, 4] is given as “one-third” and the “women who still develop recurrent disease despite adjuvant treatment” value ([1]; in the next 15 years) is given as “one-third”.

For `CC/C(=C(\c1ccc(O)cc1)c1ccc(OCCN(C)C)cc1)c1ccccc1` [4OH-tamoxifen], the ERα/chromatin interactions (ERα) was “far less pronounced” and the “number of genes with altered expression as compared to vehicle” value (ZR-75-1 cells [2]) was 1906 genes.

With `C[C@]12CC[C@@H]3c4ccc(O)cc4CC[C@H]3[C@@H]1CC[C@@H]2O` [estradiol] the “number of genes with altered expression as compared to vehicle” value (ZR-75-1 cells [2]) was 8794 genes.

With `C[C@]12CC[C@@H]3c4ccc(O)cc4C[C@@H](CCCCCCCCC[S+]([O-])CCCC(F)(F)C(F)(F)F)[C@H]3[C@@H]1CC[C@@H]2O` (stereo partly drawn) [fulvestrant, (7α,17β)-7-{9-[(4,4,5,5,5-pentafluoropentyl)sulfinyl]nonyl}estra-1,3,5(10)-triene-3,17-diol] the cell proliferation (ZR-75-1 cells [3]) was “proliferation arrest”.
